Test results: US12559494B2, “Functionalized lactams as modulators of the 5-hydroxytryptamine receptor 7 and their method of use” (Temple University - Of The Commonwealth System of Higher …, priority 2018, dated 2026)
Where a name gives a salt, the structure may show the parent alone.

Target: T1, 5HT7 receptors (Homo sapiens, UniProt P34969)
Assay: Radiolabeled binding (IC50 and Ki), [3H]LSD competition on membranes of cells expressing recombinant 5HT7 receptors
Set-up: expressed in transfected cells
Details: Table 35, scaffold drawing 615
Procedure: Radiolabel Binding Studies for Serotonin 5HT7 Receptors, Method 1:
(§1) A solution of the compound of the disclosure to be tested is prepared as a 1-mg/ml stock in Assay Buffer or DMSO according to its solubility. A similar stock of the reference compound chlorpromazine is also prepared as a positive control. Eleven dilutions (5×assay concentration) of the compound of the disclosure and chlorpromazine are prepared in the Assay Buffer by serial dilution to yield final corresponding assay concentrations ranging from 10 pM to 10 μM.
A stock concentration of 5 nM [^3H]LSD (lysergic acid diethyl amide) is prepared in 50 mM Tris-HCl, 10 mM MgCl2, 1 mM EDTA, pH 7.4 (Assay Buffer). Aliquots (50 μl) of radioligand are dispensed into the wells of a 96-well plate containing 100 μl of Assay Buffer. Duplicate 50-μl aliquots of the compound of the disclosure test and chlorpromazine positive control reference compound serial dilutions are added.
Membrane fractions of cells expressing recombinant 5HT7 receptors (50 μL) are dispensed into each well. The membranes are prepared from stably transfected cell lines expressing 5HT7 receptors cultured on 10-cm plates by harvesting PBS-rinsed monolayers, resuspending and lysing in chilled, hypotonic 50 mM Tris-HCl, pH 7.4, centrifuging at 20,000×g, decanting the supernatant and storing at −80° C.; the membrane preparations are resuspended in 3 ml of chilled Assay Buffer and homogenized by several passages through a 26 gauge needle before using in the assay.
The 250-μl reactions are incubated at room temperature for 1.5 hours, then harvested by rapid filtration onto 0.3% polyethyleneimine-treated, 96-well filter mats using a 96-well Filtermate harvester. Four rapid 500-μl washes are performed with chilled Assay Buffer to reduce non-specific binding. The filter mats are dried, then scintillant is added to the filters and the radioactivity retained on the filters is counted in a Microbeta scintillation counter.
Raw data (dpm) representing total radioligand binding (i.e., specific+non-specific binding) are plotted as a function of the logarithm of the molar concentration of the competitor (i.e., test or reference compound). Non-linear regression of the normalized (i.e., percent radioligand binding compared to that observed in the absence of test or reference compound) raw data is performed in Prism 4.0 (GraphPad Software) using the built-in three parameter logistic model describing ligand competition binding to radioligand-labeled sites: y=bottom+[(top-bottom)/(1+10×−logIC50)] where bottom equals the residual radioligand binding measured in the presence of 10 μM reference compound (i.e., non-specific binding) and top equals the total radioligand binding observed in the absence of competitor. The log IC50 (i.e., the log of the ligand concentration that reduces radioligand binding by 50%) is thus estimated from the data and used to obtain the Ki by applying the Cheng-Prusoff approximation: Ki=IC50/(1+[ligand]/KD) • where [ligand] equals the assay radioligand concentration and KD equals the affinity constant of the radioligand for the target receptor.
^1Radiolabeled Binding (IC50 and K1)
as §1, with “tested was” for “tested is”, “chlorpromazine was” for “chlorpromazine is”, “dilutions (5× assay” for “dilutions (5×assay”, “chlorpromazine were” for “chlorpromazine are”, “[…]” for “10 pM”
A stock concentration of 5 nM [^3H]LSD (lysergic acid diethyl amide) was prepared in 50 mM Tris-HCl, 10 mM MgCl2, 1 mM EDTA, pH 7.4 (Assay Buffer). Aliquots (50 μl) of radioligand were dispensed into the wells of a 96-well plate containing 100 μl of Assay Buffer. […]

T1 sequence (P34969 whole entry): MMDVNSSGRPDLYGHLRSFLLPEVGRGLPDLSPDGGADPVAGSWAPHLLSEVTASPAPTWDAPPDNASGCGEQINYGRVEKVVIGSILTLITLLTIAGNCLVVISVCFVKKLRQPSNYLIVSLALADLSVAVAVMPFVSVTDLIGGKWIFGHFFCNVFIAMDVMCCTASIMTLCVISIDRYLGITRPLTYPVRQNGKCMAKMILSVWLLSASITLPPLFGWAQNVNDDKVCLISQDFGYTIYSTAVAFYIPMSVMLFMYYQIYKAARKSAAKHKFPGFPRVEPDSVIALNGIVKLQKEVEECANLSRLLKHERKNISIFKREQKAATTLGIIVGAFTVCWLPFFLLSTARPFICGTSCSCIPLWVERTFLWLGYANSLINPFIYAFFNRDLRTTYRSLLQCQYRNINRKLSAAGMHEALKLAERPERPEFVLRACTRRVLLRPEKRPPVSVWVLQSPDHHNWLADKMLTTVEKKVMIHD

In order of rising Ki:
1. CCC1(CC)C[C@H](CN2CCN(c3ccccc3C(C)C)CC2)NC1=O [(R)-3,3-diethyl-5-((4-(2-isopropylphenyl)piperazin-1-yl)methyl)pyrrolidin-2-one formate]  0.121 µM
2. CCC1(CC)C[C@H](CN2CCN(c3ccc(F)cc3)CC2)NC1=O [(R)-3,3-diethyl-5-((4-(4-fluorophenyl)piperazin-1-yl)methyl)pyrrolidin-2-one formate]  0.243 µM
3. CCC1(CC)C[C@H](CN2CCN(c3ccc(C)cc3)CC2)NC1=O [(R)-3,3-diethyl-5-((4-(p-tolyl)piperazin-1-yl)methyl)pyrrolidin-2-one formate]  0.249 µM
4. CCC1(CC)C[C@H](CN2CCN(c3ccccn3)CC2)NC1=O [(R)-3,3-diethyl-5-((4-(pyridin-2-yl)piperazin-1-yl)methyl)pyrrolidin-2-one formate]  0.669 µM
5. CCC1(CC)C[C@H](CN2CCN(c3ccccc3)CC2)NC1=O [drawing 615 n=1 R1=Ethyl R2=Ethyl R3=Phenyl, (R)-3,3-diethyl-5-((4-phenylpiperazin-1-yl)methyl)pyrrolidin-2-one formate]  0.819 µM
6. CCC1(CC)C[C@H](CN2CCN(c3cccc(Cl)c3)CC2)NC1=O [(R)-5-((4-(3-chlorophenyl)piperazin-1-yl)methyl)-3,3-diethylpyrrolidin-2-one]  1.09 µM

Same assay, conditions: Table 35, scaffold drawing 615; read-out: IC50

With `CCC1(CC)C[C@H](CCN2CCN(c3ccc(F)cc3)CC2)NC1=O` [(R)-3,3-diethyl-5-(2-(4-(4-fluorophenyl)piperazin-1-yl)ethyl)pyrrolidin-2-one] the IC50 was 12.3 nM.

Same assay, conditions: Table 37, scaffold drawing 617

Compound `CC(=O)N1CCC2(CC1)C[C@H](CCN1CCN(c3ccc(F)cc3)CC1)NC2=O` [drawing 617 n=2 R3=4-F-Phenyl R7=Acetyl, (R)-8-acetyl-3-(2-(4-(4-fluorophenyl)piperazin-1-yl)ethyl)-2,8-diazaspiro[4.5]decan-1-one] has a Ki of 0.076 µM.

Same assay, conditions: [3H]LSD radioligand, membranes of cells expressing recombinant 5HT7 receptors; read-out: IC50 (nM)^1

`CCC1(CC)CC(CCN2CCN(c3ccccc3)CC2)NC1=O` (centres unmarked) [3,3-diethyl-5-(2-(4-phenylpiperazin-1-yl)ethyl)pyrrolidin-2-one] was tested, and the IC50 was 68 nM.

Target: T1, 5HT7 receptors
Assay: Functional data (Kb), HitHunter cAMP enzyme fragment complementation assay with 5-HT as agonist
Format: cell-based
Set-up: expressed in transfected cells; G418 selection)
Details: Table 35, scaffold drawing 615; antagonist mode vs 5-HT; read-out: Kb
Procedure: Functional efficacy of the compounds of the disclosure on 5-HT7 serotonin receptors were measured in a cell based cAMP enzyme fragment complementation assay using the HitHunter cAMP assay (DiscoveRx). Cells stably expressing human 5HT7 receptors were plated in 96-well plates at 4000 cells/well, 16-20 hours prior to assay in growth media (Ultraculture medium, 2 mM GlutaMax and G418 1 mg/mL. Serial dilutions of the agonist, 5-hydroxytryptamine (5-HT), were prepared in a final concentration range of 10 μM to 10 nM. Compounds of the disclosure were prepared in 3-fold serial dilutions to obtain a final concentration range of 10 μM to 0.1 nM. Compounds of the disclosure are tested for agonist activity in the absence of 5-HT and antagonist activity in the presence of 5-HT. For the cAMP assay, the protocol was followed according to the instructions provided by the supplier. Briefly, cells were incubated with a compound of the disclosure for 30 minutes at 37° C. prior to addition of EC70 concentration of 5-HT. After an additional 30 minutes, cAMP antibody/cell lysis solution was added (20 μL/well) and incubated for 60 minutes at room temperature. cAMP XS+EA reagent is added (20 μL/well) and incubated for 2 hours at room temperature. Luminescence was read on the Envision Multilabel plate reader.

In order of falling Kb:
1. CCC1(CC)C[C@H](CCN2CCN(c3ccc(C#N)cc3)CC2)NC1=O [(R)-4-(4-(2-(4,4-diethyl-5-oxopyrrolidin-2-yl)ethyl)piperazin-1-yl)benzonitrile]  544 nM
2. CCC1(CC)C[C@H](CCN2CCN(c3ccccc3OC)CC2)NC1=O [(R)-3,3-diethyl-5-(2-(4-(2-methoxyphenyl)piperazin-1-yl)ethyl)pyrrolidin-2-one]  230 nM
3. CCC1(CC)C[C@H](CCN2CCN(c3ccc(C(F)(F)F)cc3)CC2)NC1=O [(R)-3,3-diethyl-5-(2-(4-(4-(trifluoromethyl)phenyl)piperazin-1-yl)ethyl)pyrrolidin-2-one]  137 nM
4. CCC1(CC)C[C@H](CCN2CCN(c3ccccc3C)CC2)NC1=O [(R)-5-(2-(4-(2-methylphenyl)piperazin-1-yl)ethyl)-3,3-diethylpyrrolidin-2-one]  127 nM
5. CCC1(CC)C[C@H](CCN2CCN(c3ccccc3Cl)CC2)NC1=O [(R)-5-(2-(4-(2-chlorophenyl)piperazin-1-yl)ethyl)-3,3-diethylpyrrolidin-2-one]  109 nM
6. CCC1(CC)C[C@H](CCN2CCN(c3cccc(F)c3)CC2)NC1=O [(R)-5-(2-(4-(3-fluorophenyl)piperazin-1-yl)ethyl)-3,3-diethylpyrrolidin-2-one]  9.89 nM
7. CCC1(CC)C[C@H](CCN2CCN(c3ccccc3)CC2)NC1=O [drawing 615 n=2 R1=Ethyl R2=Ethyl R3=Phenyl, (R)-3,3-diethyl-5-(2-(4-phenylpiperazin-1-yl)ethyl)pyrrolidin-2-one]  6.59 nM
8. CCC1(CC)C[C@H](CCN2CCN(c3ccccn3)CC2)NC1=O [(R)-3,3-diethyl-5-(2-(4-(pyridin-2-yl)piperazin-1-yl)ethyl)pyrrolidin-2-one]  4.91 nM
9. CCC1(CC)C[C@H](CCN2CCN(c3cccc(C)c3)CC2)NC1=O [(R)-5-(2-(4-(3-methylphenyl)piperazin-1-yl)ethyl)-3,3-diethylpyrrolidin-2-one]  1.65 nM
10. CCC1(CC)C[C@H](CCN2CCN(c3ccc(F)cc3)CC2)NC1=O [(R)-3,3-diethyl-5-(2-(4-(4-fluorophenyl)piperazin-1-yl)ethyl)pyrrolidin-2-one]  0.81 nM

Same assay, conditions: Table 36, scaffold drawing 616; antagonist mode vs 5-HT; read-out: Kb

In order of rising Kb:
1. O=C1N[C@H](CCN2CCN(c3cccc(Cl)c3)CC2)CC12CC=CC2 [(S)-3-(2-(4-(3-chlorophenyl)piperazin-1-yl)ethyl)-2-azaspiro[4.4]non-7-en-1-one]  36.3 nM
2. O=C1N[C@H](CCN2CCN(c3ccc(F)cc3)CC2)CC12CC=CC2 [(S)-3-(2-(4-(4-fluorophenyl)piperazin-1-yl)ethyl)-2-azaspiro[4.4]non-7-en-1-one]  46.2 nM
3. O=C1N[C@H](CCN2CCN(c3cccc(Cl)c3)CC2)CC12CCCC2 [(S)-3-(2-(4-(3-chlorophenyl)piperazin-1-yl)ethyl)-2-azaspiro[4.4]nonan-1-one]  48.4 nM
4. O=C1N[C@H](CCN2CCN(c3ccc(F)cc3)CC2)CC12CCCC2 [(S)-3-(2-(4-(4-fluorophenyl)piperazin-1-yl)ethyl)-2-azaspiro[4.4]nonan-1-one]  52.6 nM

Same assay, conditions: Table 37, scaffold drawing 617; antagonist mode vs 5-HT; read-out: Kb

In order of rising Kb:
1. CC(=O)N1CCC2(CC1)C[C@H](CCN1CCN(c3ccc(F)cc3)CC1)NC2=O [drawing 617 n=2 R3=4-F-Phenyl R7=Acetyl, (R)-8-acetyl-3-(2-(4-(4-fluorophenyl)piperazin-1-yl)ethyl)-2,8-diazaspiro[4.5]decan-1-one]  14.4 nM
2. CS(=O)(=O)N1CCC2(CC1)C[C@H](CCCN1CCN(c3cccc(Cl)c3)CC1)NC2=O [drawing 617 n=3 R3=3-Cl-Phenyl R7=MeSO2, (S)-3-(3-(4-(3-chlorophenyl)piperazin-1-yl)propyl)-8-(methylsulfonyl)-2,8-diazaspiro[4.5]decan-1-one]  321 nM
3. CS(=O)(=O)N1CCC2(CC1)C[C@H](CCCN1CCN(c3ccc(F)cc3)CC1)NC2=O [drawing 617 n=3 R3=4-F-Phenyl R7=MeSO2, (S)-3-(3-(4-(4-fluorophenyl)piperazin-1-yl)propyl)-8-(methylsulfonyl)-2,8-diazaspiro[4.5]decan-1-one]  526 nM

Same assay, conditions: Table 39, scaffold drawing 619; antagonist mode vs 5-HT; read-out: Kb

In the case of `CCC1(CC)C[C@H](CCN2CC3CN(c4ccccc4)CC3C2)NC1=O` (stereo partly drawn) [drawing 619 n=2 R1=Ethyl R2=Ethyl R3=Phenyl, (5R)-3,3-diethyl-5-(2-(5-phenylhexahydropyrrolo[3,4-c]pyrrol-2(1H)-yl)ethyl)pyrrolidin-2-one], the Kb is reported as 144 nM.

Same assay, conditions: cAMP assay, cells stably expressing human 5HT7 receptors, antagonist activity in the presence of EC70 5-HT; read-out: Kb (nM)^2

In order of rising Kb:
1. CCC1(CC)CC(CCN2CCN(c3ccccc3)CC2)NC1=O (centres unmarked) [3,3-diethyl-5-(2-(4-phenylpiperazin-1-yl)ethyl)pyrrolidin-2-one]  17.8 nM
2. CS(=O)(=O)N1CCC2(CC1)C[C@@H](CCN1CCN(c3ccc(F)cc3)CC1)NC2=O [drawing 618; n=2; R3=4-F-Phenyl; R7=MeSO2, (S)-3-(2-(4-(4-fluorophenyl)piperazin-1-yl)ethyl)-8-(methylsulfonyl)-2,8-diazaspiro[4.5]decan-1-one]  74.2 nM
